Measured values as given in ChEMBL document CHEMBL4715697, “Synthesis and biological activity of benzamide DNA minor groove binders” (2016).

Experiments:
[1] = test system: RXF 393; experiment: Growth inhibition of human RXF 393 cells assessed as cell growth at 10 uM incubated for 48 hrs by sulforhodamine B assay relative to control; format: functional; conditions: read-out: Activity
[2] = test system: KM12; experiment: Growth inhibition of human KM12 cells assessed as cell growth at 1 uM incubated for 48 hrs by sulforhodamine B assay relative to control; format: functional; conditions: read-out: Activity
[3] = test system: UACC-62; experiment: Growth inhibition of human UACC-62 cells assessed as cell growth at 10 uM incubated for 48 hrs by sulforhodamine B assay relative to control; format: functional; conditions: read-out: Activity
[4] = test system: A498; experiment: Growth inhibition of human A498 cells assessed as cell growth at 10 uM incubated for 48 hrs by sulforhodamine B assay relative to control; format: functional; conditions: read-out: Activity
[5] = test system: DU-145; experiment: Growth inhibition of human DU-145 cells incubated for 48 hrs by sulforhodamine B assay; format: functional
[6] = test system: NCI/ADR-RES; experiment: Growth inhibition of human NCI/ADR-RES cells assessed as cell growth at 0.01 uM incubated for 48 hrs by sulforhodamine B assay relative to control; format: functional; conditions: read-out: Activity
[7] = test system: MDA-MB-435; experiment: Growth inhibition of human MDA-MB-435 cells assessed as cell growth at 10 uM incubated for 48 hrs by sulforhodamine B assay relative to control; format: functional; conditions: read-out: Activity
[8] = test system: NCI/ADR-RES; experiment: Growth inhibition of human NCI/ADR-RES cells assessed as cell growth at 100 uM incubated for 48 hrs by sulforhodamine B assay relative to control; format: functional; conditions: read-out: Activity
[9] = test system: CCRF-CEM; experiment: Growth inhibition of human CCRF-CEM cells assessed as cell growth at 10 uM incubated for 48 hrs by sulforhodamine B assay relative to control; format: functional; conditions: read-out: Activity
[10] = test system: OVCAR-4; experiment: Growth inhibition of human OVCAR-4 cells assessed as cell growth at 10 uM incubated for 48 hrs by sulforhodamine B assay relative to control; format: functional; conditions: read-out: Activity
[11] = test system: SNB-19; experiment: Growth inhibition of human SNB-19 cells assessed as cell growth at 0.1 uM incubated for 48 hrs by sulforhodamine B assay relative to control; format: functional; conditions: read-out: Activity
[12] = test system: KM12; experiment: Growth inhibition of human KM12 cells assessed as cell growth at 0.01 uM incubated for 48 hrs by sulforhodamine B assay relative to control; format: functional; conditions: read-out: Activity
[13] = test system: HL-60(TB); experiment: Growth inhibition of human HL-60(TB) cells incubated for 48 hrs by sulforhodamine B assay; format: functional
[14] = test system: IGROV-1; experiment: Growth inhibition of human IGROV-1 cells assessed as cell growth at 100 uM incubated for 48 hrs by sulforhodamine B assay relative to control; format: functional; conditions: read-out: Activity
[15] = test system: CCRF-CEM; experiment: Growth inhibition of human CCRF-CEM cells assessed as cell growth at 1 uM incubated for 48 hrs by sulforhodamine B assay relative to control; format: functional; conditions: read-out: Activity
[16] = test system: Malme-3M; experiment: Growth inhibition of human Malme-3M cells assessed as cell growth at 1 uM incubated for 48 hrs by sulforhodamine B assay relative to control; format: functional; conditions: read-out: Activity
[17] = test system: SR; experiment: Growth inhibition of human SR cells assessed as cell growth at 10 uM incubated for 48 hrs by sulforhodamine B assay relative to control; format: functional; conditions: read-out: Activity
[18] = test system: DU-145; experiment: Growth inhibition of human DU-145 cells assessed as cell growth at 1 uM incubated for 48 hrs by sulforhodamine B assay relative to control; format: functional; conditions: read-out: Activity
[19] = test system: Poly(dA-dT)oligonucleotide; experiment: Binding affinity to minor groove of poly(dA:dT) dsDNA (unknown origin) assessed as change in melting temperature by UV-vis spectrophotometry based DNA melting assay; format: nucleic-acid assay
[20] = test system: SW-620; experiment: Growth inhibition of human SW-620 cells assessed as cell growth at 0.1 uM incubated for 48 hrs by sulforhodamine B assay relative to control; format: functional; conditions: read-out: Activity
[21] = test system: COLO 205; experiment: Growth inhibition of human COLO 205 cells assessed as cell growth at 10 uM incubated for 48 hrs by sulforhodamine B assay relative to control; format: functional; conditions: read-out: Activity
[22] = test system: Poly(dA-dT)oligonucleotide; experiment: Displacement of ethidium bromide from minor groove of poly(dA:dT) dsDNA (unknown origin) by fluorescence spectrophotometry; format: nucleic-acid assay
[23] = test system: Malme-3M; experiment: Growth inhibition of human Malme-3M cells assessed as cell growth at 10 uM incubated for 48 hrs by sulforhodamine B assay relative to control; format: functional; conditions: read-out: Activity
[24] = test system: SN12C; experiment: Growth inhibition of human SN12C cells incubated for 48 hrs by sulforhodamine B assay; format: functional
[25] = test system: SK-MEL-28; experiment: Growth inhibition of human SK-MEL-28 cells assessed as cell growth at 10 uM incubated for 48 hrs by sulforhodamine B assay relative to control; format: functional; conditions: read-out: Activity
[26] = test system: SK-MEL-2; experiment: Growth inhibition of human SK-MEL-2 cells assessed as cell growth at 10 uM incubated for 48 hrs by sulforhodamine B assay relative to control; format: functional; conditions: read-out: Activity
[27] = test system: RPMI-8226; experiment: Growth inhibition of human RPMI-8226 cells assessed as cell growth at 10 uM incubated for 48 hrs by sulforhodamine B assay relative to control; format: functional; conditions: read-out: Activity
[28] = test system: OVCAR-8; experiment: Growth inhibition of human OVCAR-8 cells assessed as cell growth at 0.01 uM incubated for 48 hrs by sulforhodamine B assay relative to control; format: functional; conditions: read-out: Activity
[29] = test system: ACHN; experiment: Growth inhibition of human ACHN cells assessed as cell growth at 10 uM incubated for 48 hrs by sulforhodamine B assay relative to control; format: functional; conditions: read-out: Activity
[30] = test system: MCF7; experiment: Growth inhibition of human MCF7 cells assessed as cell growth at 0.01 uM incubated for 48 hrs by sulforhodamine B assay relative to control; format: functional; conditions: read-out: Activity
[31] = test system: NCI-H460; experiment: Growth inhibition of human NCI-H460 cells assessed as cell growth at 10 uM incubated for 48 hrs by sulforhodamine B assay relative to control; format: functional; conditions: read-out: Activity
[32] = test system: U-251; experiment: Growth inhibition of human U-251 cells assessed as cell growth at 10 uM incubated for 48 hrs by sulforhodamine B assay relative to control; format: functional; conditions: read-out: Activity
[33] = test system: Hs-578T; experiment: Growth inhibition of human Hs-578T cells assessed as cell growth at 10 uM incubated for 48 hrs by sulforhodamine B assay relative to control; format: functional; conditions: read-out: Activity
[34] = test system: SF-295; experiment: Growth inhibition of human SF-295 cells assessed as cell growth at 10 uM incubated for 48 hrs by sulforhodamine B assay relative to control; format: functional; conditions: read-out: Activity
[35] = test system: SNB-19; experiment: Growth inhibition of human SNB-19 cells assessed as cell growth at 10 uM incubated for 48 hrs by sulforhodamine B assay relative to control; format: functional; conditions: read-out: Activity
[36] = test system: SN12C; experiment: Growth inhibition of human SN12C cells assessed as cell growth at 10 uM incubated for 48 hrs by sulforhodamine B assay relative to control; format: functional; conditions: read-out: Activity
[37] = test system: RXF 393; experiment: Growth inhibition of human RXF 393 cells assessed as cell growth at 1 uM incubated for 48 hrs by sulforhodamine B assay relative to control; format: functional; conditions: read-out: Activity
[38] = test system: SNB-19; experiment: Growth inhibition of human SNB-19 cells assessed as cell growth at 1 uM incubated for 48 hrs by sulforhodamine B assay relative to control; format: functional; conditions: read-out: Activity
[39] = read-out: LC50 (the source's name)
[40] = read-out: pLC50 (the source's name) (converted)

CC(=O)Nc1cc(CO[Si](C)(C)C(C)(C)C)cc(NC(=O)c2ccc(C(=O)Nc3cccc(NC(=O)CCCN(C)C)c3)cc2)c1
growth at 10 µM [1]: 95%
growth at 1 µM [2]: 99%
growth at 10 µM [3]: 89%
growth at 10 µM [4]: 77%
GI50 ([5]; read-out: GI50): > 75 µM
CC50 [5, 39]: > 75 µM
TGI ([5]; read-out: TGI): > 75 µM
GI50 ([5]; read-out: pGI50 (converted)): > 75.9 µM
CC50 [5, 40]: > 75.9 µM
TGI ([5]; read-out: pTGI): > 75.9 µM
growth at 0.01 µM [6]: 103%
growth at 10 µM [7]: 96%
growth at 100 µM [8]: 92%
growth at 10 µM [9]: 109%
growth at 10 µM [10]: 85%
growth at 0.1 µM [11]: 96%
growth at 0.01 µM [12]: 98%
GI50 ([13]; read-out: GI50): > 75 µM
LC50 ([13]; read-out: LC50): > 75 µM
TGI ([13]; read-out: TGI): > 75 µM
GI50 ([13]; read-out: pGI50 (converted)): > 75.9 µM
LC50 ([13]; read-out: pLC50 (converted)): > 75.9 µM
TGI ([13]; read-out: pTGI): > 75.9 µM
growth at 100 µM [14]: 75%
growth at 1 µM [15]: 98%
growth at 1 µM [16]: 94%
growth at 10 µM [17]: 108%
growth at 1 µM [18]: 88%
ΔTm [19]: 47.2 °C
growth at 0.1 µM [20]: 100%
growth at 10 µM [21]: 98%
C50 [22]: 5 µM
growth at 10 µM [23]: 88%
GI50 ([24]; read-out: GI50): > 75 µM
CC50 [24, 39]: > 75 µM
TGI ([24]; read-out: TGI): > 75 µM
GI50 ([24]; read-out: pGI50 (converted)): > 75.9 µM
CC50 [24, 40]: > 75.9 µM
TGI ([24]; read-out: pTGI): > 75.9 µM
growth at 10 µM [25]: 87%
growth at 10 µM [26]: 102%
growth at 10 µM [27]: 106%
growth at 0.01 µM [28]: 102%
growth at 10 µM [29]: 90%
growth at 0.01 µM [30]: 94%
growth at 10 µM [31]: 95%
growth at 10 µM [32]: 87%
growth at 10 µM [33]: 111%
growth at 10 µM [34]: 95%
growth at 10 µM [35]: 100%
growth at 10 µM [36]: 99%
growth at 1 µM [37]: 106%
growth at 1 µM [38]: 101%

CC(=O)Nc1cc(CCl)cc(NC(=O)c2ccc(C(=O)Nc3cccc(NC(=O)CCCN(C)C)c3)cc2)c1
growth at 10 µM [1]: 96%
growth at 1 µM [2]: 107%
growth at 10 µM [3]: 101%
growth at 10 µM [4]: 87%
GI50 ([5]; read-out: GI50): > 100 µM
CC50 [5, 39]: > 100 µM
TGI ([5]; read-out: TGI): > 100 µM
GI50 ([5]; read-out: pGI50 (converted)): > 100 µM
CC50 [5, 40]: > 100 µM
TGI ([5]; read-out: pTGI): > 100 µM
growth at 0.01 µM [6]: 105%
growth at 10 µM [7]: 100%
growth at 100 µM [8]: 85%
growth at 10 µM [9]: 114%
growth at 10 µM [10]: 99%
growth at 0.1 µM [11]: 104%
growth at 0.01 µM [12]: 105%
GI50 ([13]; read-out: GI50): > 100 µM
LC50 ([13]; read-out: LC50): > 100 µM
TGI ([13]; read-out: TGI): > 100 µM
GI50 ([13]; read-out: pGI50 (converted)): > 100 µM
LC50 ([13]; read-out: pLC50 (converted)): > 100 µM
TGI ([13]; read-out: pTGI): > 100 µM
growth at 100 µM [14]: 100%
growth at 1 µM [15]: 107%
growth at 1 µM [16]: 97%
growth at 10 µM [17]: 125%
growth at 1 µM [18]: 106%
ΔTm [19]: 38.7 °C
growth at 0.1 µM [20]: 107%
growth at 10 µM [21]: 105%
C50 [22]: 9.9 µM
growth at 10 µM [23]: 100%
GI50 ([24]; read-out: GI50): > 100 µM
CC50 [24, 39]: > 100 µM
TGI ([24]; read-out: TGI): > 100 µM
GI50 ([24]; read-out: pGI50 (converted)): > 100 µM
CC50 [24, 40]: > 100 µM
TGI ([24]; read-out: pTGI): > 100 µM
growth at 10 µM [25]: 96%
growth at 10 µM [26]: 116%
growth at 10 µM [27]: 116%
growth at 0.01 µM [28]: 102%
growth at 10 µM [29]: 99%
growth at 0.01 µM [30]: 88%
growth at 10 µM [31]: 110%
growth at 10 µM [32]: 100%
growth at 10 µM [33]: 111%
growth at 10 µM [34]: 66%
growth at 10 µM [35]: 106%
growth at 10 µM [36]: 105%
growth at 1 µM [37]: 88%
growth at 1 µM [38]: 104%
